Results from patent US20240390301A1, “COMBINATIONS OF PERIPHERAL 5-HT2A RECEPTOR ANTAGONISTS AND CENTRAL 5-HT2A RECEPTOR AGONISTS” (priority 2021, published 2024).

Experiments:
[1] = test system: DOPR-induced elevation of MABP; assay: Effect on DOPR-induced blood pressure (MABP) elevation in anesthetized rats; type: in vivo, Sprague-Dawley rats
Protocol: Key peripheral 5-HT2A receptor antagonists were tested for their ability to block the increases in blood pressure (BP) induced by a maximally effective dose (in terms of HTR response) of 2,5-dimethoxy-4-propylamphetamine (DOPR) in anesthetized rats, with the key results summarized in FIGS. 5-9. FIG. 5 depicts in a bar graph the effect of xylamidine pre-treatment on DOPR-induced elevation of MABP in the rat. The indicated doses of xylamidine or vehicle were administered SC, followed 10 minutes later by DOPR (0.32 mg/kg, SC), and mean percent change in MABP relative to the baseline recording for each group was calculated for the 20 minutes immediately after DOPR administration (10-30 min after administration of xylamidine). *p<0.05, **p<0.01 vs. vehicle using Dunnett's multiple comparison test. FIG. 6 depicts in a bar graph the effect of BW501C67 pre-treatment on DOPR-induced elevation of MABP in the rat. The indicated doses of BW501C67 or vehicle were administered SC, followed 10 minutes later by DOPR (0.32mg/kg, SC), and mean percent change in MABP relative to the baseline recording for each group was calculated for the 20 minutes immediately after DOPR administration (10-30 min after administration of BW501C67). *p<0.05 vs. vehicle using Dunnett's multiple comparison test. FIG. 7 depicts in a bar graph the effect of xylamidine pre-treatment on DOPR-induced elevation of MABP in the rat. The indicated doses of xylamidine or vehicle were administered SC. followed 10 minutes later by DOPR (0.32 mg/kg, SC), and mean percent change in MABP relative to the baseline recording for each group was calculated for the period 45-55 minutes after DOPR administration (55-65 min after administration of xylamidine). *p<0.05, ***p<0.001 vs. vehicle using Dunnett's multiple comparison test. FIG. 8 depicts in a bar graph the effect of BW501C67pre-treatment on DOPR-induced elevation of MABP in the rat. The indicated doses of BW501C67or vehicle were administered SC, followed 10 minutes later by DOPR (0.32 mg/kg, SC), and mean percent change in MABP relative to the baseline recording for each group was calculated for the period 45-55 minutes after DOPR administration (55-65 min after administration of BW501C67). *p<0.05, **p<0.01, ***p<0.001 vs. vehicle using Dunnett's multiple comparison test. FIG. 9 depicts in a bar graph the effect of Compound 14a pre-treatment on DOPR-induced elevation of MABP in the rat. The indicated doses of Compound 14a or vehicle were administered SC, followed 10 minutes later by DOPR (0.32 mg/kg, SC), and mean percent change in MABP relative to the baseline recording for each group was calculated for the 20 minutes immediately after DOPR administration (10-30 min after administration of Compound 14a).
Animals. Adult male Sprague-Dawley rats aged 8 weeks (body weight ˜270 g) were used in these experiments. Animals were pair housed under controlled temperatures and 12-hour light/dark cycles (lights on between 07:00-19:00 h), with ad libitum food and water. The protocol was approved by the Eurofins Advinus Institutional Animal Care and Use Committee. […]
Drugs and Drug administration. […] The 5-HT2A receptor agonist DOPR was then administered at 1 dose (0.32 mg/kg. SC, in saline, calculated based on the free base) to all animals 10 min after pretreatment with the test peripheral antagonist or vehicle (saline). […]

[2] = in vitro; parameters: fraction unbound at 4 h: dose or concentration left out as unconfirmed; conditions: rat, brain homogenate
Protocol: Various putative peripheral 5-HT2A receptor antagonists were tested for binding to rat brain homogenate via equilibrium dialysis, with the results summarized in Table 7.
Method 1. Rat brain homogenate was thawed in a water bath at room temperature and then incubated at 37° C. for 10 min before use. Aliquots of 50 μL of loading matrix containing test compound (2 μM final incubation concentration) or control compound in triplicate were transferred to a Sample Collection Plate. The samples were matched with opposite blank buffer to obtain a final volume of 100 μL with a volume ratio of matrix: Dialysis Buffer of 1:1 (v:v) in each well. The stop solution (200 ng/mL tolbutamide and 200 ng/ml labetalol in ACN) was immediately added to these T0 samples of test compound and control compound. The plate was sealed and shaken at 800 rpm for 10 min. T0 samples were stored at 2-8° C. pending further processing along with other post-dialysis samples. An aliquot of 100 μL of the loading matrix containing test compound or control compound was transferred to the donor side of each dialysis well in triplicate and 100 μL of the Dialysis Buffer was loaded to the receiver side of the well. Then the plate was rotated at approximately 100 rpm in a humidified incubator with 5% CO2 at 37±1° C. for 4 hours. At the end of the dialysis. aliquots of 50 μL from the buffer side and matrix side of the dialysis device were taken into new 96-well plates (Sample Collection Plates). An equal volume of opposite blank matrix (buffer or matrix) in each sample was added to reach a final volume of 100 μL, with a volume ratio of matrix: Dialysis Buffer of 1:1 (v:v) in each well. All samples were further processed by protein precipitation before LC-MS/MS analysis.
Method 2. Aliquots (200 μL) of test compounds and positive controls at […] in rat brain homogenate (triplicates) were added to the rapid equilibrium dialysis (RED) chamber of dialysis inserts. A 350 μL aliquot of dialysis buffer was added to the buffer chamber of the inserts. After sealing the RED device with an adhesive film, dialysis was conducted at 37° C. with shaking at 100 RPM for 4 hours. Following dialysis, an aliquot of 50 μL was removed from each well (brain homogenate and buffer) and diluted with an equal volume of opposite matrix to nullify the matrix effect. Similarly, buffer was added to recovery and stability samples. An aliquot of 100 μL was used for LC-MS/MS analysis following protein precipitation with ACN containing internal standard.

[3] = 10-30 min after antagonist administration (0.01 to 10 mg/kg SC), DOPR 0.32 mg/kg SC
[4] = 55-65 min after antagonist administration (45-55 min after DOPR 0.32 mg/kg SC)

SMILES: CC(CNC(=N)CNc1ccccc1)Oc1cccc(Cl)c1.O=CO (stereo not drawn) [BW501C67, N-(2-(3-chlorophenoxy)propyl)-2-(phenylamino)acetimidamide formate]
- Attenuation of DOPR-induced elevation of MABP [1, 3]: significantly attenuated
- Attenuation of DOPR-induced elevation of MABP [1, 4]: showing activity at lower doses
- fraction unbound at 4 h, 2 μM [2]: 0.003

SMILES: CC(C)COc1ccc(CNC(=O)N(Cc2ccc(F)cc2)C2CCN(C(=O)CC[C@H](N)C(=O)O)CC2)cc1 [Compound 14a, (S)-2-amino-5-(4-(1-(4-fluorobenzyl)-3-(4-isobutoxybenzyl)ureido)piperidin-1-yl)-5-oxopentanoic acid]
- Attenuation of DOPR-induced elevation of MABP [1, 3]: failed to significantly attenuate
- fraction unbound at 4 h [2]: 0.078

SMILES: COc1cccc(CCc2ccccc2OCC(CN(C)C)OC(=O)CCC(=O)O)c1 (stereo not drawn) [sarpogrelate]
- fraction unbound at 4 h [2]: 0.054

SMILES: COc1cccc(C(=O)Nc2ccc(OCCN3CCOCC3)c(-c3ccnn3C)c2)c1 [temanogrel]
- fraction unbound at 4 h [2]: 0.108

SMILES: COc1cccc(OC(C)CNC(=N)Cc2cccc(C)c2)c1.O=C(O)C(F)(F)F (stereo not drawn) [xylamidine, N-(2-(3-methoxyphenoxy)propyl)-2-(m-tolyl) acetimidamide trifluoroacetate]
- Attenuation of DOPR-induced elevation of MABP [1, 3]: significantly attenuated
- Attenuation of DOPR-induced elevation of MABP [1, 4]: showing activity at lower doses
